In US20110212235A1, “ANTIMICROBIAL SALT SOLUTIONS FOR CHEESE PROCESSING APPLICATIONS” (priority 2006, published 2011):

Assays:
[1] = pH and water activity of test solutions; type: physicochemical
[2] = tested on: L. monocytogenes; experiment: L. monocytogenes kill in cold salt/acid/surfactant solutions; type: cell-based
Method: To study chilling brine application of the current embodiment, tests were run on 17% by weight solutions of formulas consisting of between 0.3% and 6.0% citric acid, between 50 and 500 ppm SLS, and between 94% and 99.7% sodium chloride. Test solutions were cooled to −7° C. and inoculated with several strains of L. monocytogenes.
An experiment was run to determine if solutions containing sodium chloride, sodium lauryl sulfate, and various acids would kill L. monocytogenes at cold temperatures. […] A 1.0 ml aliquot of this suspension was added to 100 ml of cold (−7° C.+2° C.) test solution and mixed well, providing an initial inoculum of 10^3 CFU/ml. The test solutions were incubated at −7° C.+/−2° C. for the duration of the experiment. At intervals of 0, 4, and 24 hours the L. monocytogenes populations in the test solutions were determined on Modified Oxford agar (MOX). MOX plates were incubated at 35° C.+/−2° C. for approximately 48 hours. Colonies were then counted and compared to the initial inoculum counts.
Each test solution was a 17% by weight solution of the listed formula prepared in soft water.
In another experiment, 17% by weight solutions of formulas containing various levels of sodium chloride, citric acid, and sodium lauryl sulfate were tested for effectiveness in killing L. monocytogenes at cold temperatures. The same test procedure was used as described above, except test solutions were plated on MOX with a Thin Agar Overlay of TSA (to aid in the recovery of injured cells).
In another experiment, two sets of solutions were tested. The first set (samples 1-12 in Table 10 below) was prepared in hard tap water and contained about 17.0% by mass of the formulation. These samples were inoculated with 10^3 CFU/ml L. monocytogenes by the same procedure as described above. A second set of samples was prepared from brine taken from a ready-to-eat meat processing operation. The recirculated brine had been used to chill packaged meat for one week. After a week of use the brine typically contains various types of aerobic psychotropic and mesophilic bacteria. This experiment was done in order to determine if the additives would kill the microorganisms naturally occurring in actual process brine from a plant. Since the spent chill brine samples already contained NaCl citric acid and/or SLS was added to provide an effective concentration of additive. One set of these samples (samples 13-17) were inoculated with 10^3 L. monocytogenes and the other set (samples 18-22) contained only the naturally occurring organisms in the spent chill brine. […] Other antimicrobials, such as quaternary ammonium compounds can lose significant activity in hard water, often necessitating further additives, such as EDTA as a chelating agent, to maintain antimicrobial activity.
Another set of experiments was done in order to determine the effectiveness of different acids and different types of surfactants in the antimicrobial salt formulations. In one experiment, test solutions containing ˜17% by weight of formulas containing various levels of sodium chloride, 100 ppm sodium lauryl sulfate, and various levels of different acids were tested for effectiveness in killing L. monocytogenes at cold temperatures. The same test procedure was used as described above (test solutions were plated on MOX TAL (Modified Oxford Medium with a Thin Agar Layer) with TSA). The controls were a solution of pure NaCl, a solution of a blend of 100 ppm SLS in NaCl, and a solution of a blend of 0.5% citric acid, 100 ppm SLS, and 99.5% NaCl.

[3] = tested on: L. monocytogenes; experiment: L. monocytogenes challenge in hot dog plant chill brine at −20° C.; type: cell-based
Method: 1. Inoculate a separate tube containing approximately 10 ml of Brain Heart infusion (BHI) broth with the following L. monocytogenes strains: H2446 (CDC Global Standard), Scott A (serotype 4b), 12243 (serotype 1/2a), and two strains isolated from the environment of a cooked meat and poultry facility, designated WP1, and WP4. Incubate the tubes at least 5 days at 7-10° C.+/−2° C. 2. Assume the growth to be 10^9 cfu/ml. Serially dilute each culture in cold (˜7° C.). Butterfield's Phosphate Buffered Water (PBW) to 10^8 cfu/ml (1:10). Since five cultures of L. monocytogenes are being used as a cocktail, begin the dilution series using […] of each culture added to 99 ml of PBW. 3. Plate (−6, −7, −8) the diluted culture to get the starting count of the inoculum on Modified Oxford medium (MOX) using a thin agar overlay (TAL) technique (overlay with Trypticase Soy Agar [TSA]) to revive injured cells. 4. Add 1 ml of the diluted cocktail to 100 ml of cold test solution. 5. Mix the solutions well. 6. Determine the L. monocytogenes population at time 0 and 4 hours. Plate −1 (0.1 ml on 1 plate), −2, −3, and −4 dilutions using spread plates on MOX TAL with TSA. 7. Incubate the test solutions at test temperature for the duration of the experiment. 8. Incubate the MOX TAL with TSA plates at 20° C.+/−2° C. for 72+/−3 hours. Count representative colonies, which are black, and multiply by the dilution factor. […]

[4] = 17% by weight solution of the formula in soft water, Table 8
[5] = 17% by weight solution in soft water, −7° C., MOX
[6] = 17% by weight solution, −6.7° C., MOX with thin agar overlay

| Molecule | Water Activity [1, 4] | pH [1, 4] | pH ([1]; 17% by weight solution of the formula, Table 9) | L. monocytogenes, 24 ([2]; 24, about 17.0% of formulation in hard tap water) | L. monocytogenes, 2 hr ([2]; 2 hr, about 17.0% of formulation in hard tap water) | L. monocytogenes, 4 hr [2, 5] | L. monocytogenes, 4 hr [2, 6] | L. monocytogenes, 24 hr [2, 5] | L. monocytogenes, 24 hr [2, 6] | L. monocytogenes, Time 0 ([2]; 17% by weight solution of the formula in soft water, −7° C., MOX) | L. monocytogenes, Time 0 ([2]; 17% by weight solution, −6.7° C., MOX with thin agar overlay of TSA) | L. monocytogenes, Time 0 ([2]; about 17.0% of formulation in hard tap water (27 gpg), inoculated 10^3 CFU/ml) | effectiveness at lower concentration ([3]; 12.5 ppm in the hot dog plant brine) | kill of L. monocytogenes inoculum ([3]; 50 ppm, within 4 hours, −20° C., hot dog plant brine) | L. monocytogenes, Time 4 Hours ([2]; 4 hours, 17% by weight of formula of 99.7% sodium chloride, 0.3% citric acid, 500 ppm of listed surfactant, cold) | L. monocytogenes, Time 0 ([2]; 17% by weight of formula of 99.7% sodium chloride, 0.3% citric acid, 500 ppm of listed surfactant, cold) |
| --- | --- | --- | --- | --- | --- | --- | --- | --- | --- | --- | --- | --- | --- | --- | --- | --- |
| [Cl-].[Na+] [100% NaCl, sodium chloride, reference compound] | 0.88 | 7.88 | 7.66 | 1100 cfu/ml | 1100 cfu/ml | 1250 CFU/ml | ~6250 CFU/ml | 1170 CFU/ml | 2290 CFU/ml | 1550 CFU/ml | ~7000 CFU/ml | 760 cfu/ml | – | – | – | – |
| alcohol ethoxylate | – | – | – | – | – | – | – | – | – | – | – | – | as effective as 50 ppm | ~5 log | 1 CFU/ml | 1080 CFU/ml |
